Assay results taken from patent US9101620B2, “Polymorph of 3-(substituteddihydroisoindolinone-2-yl)-2,6-dioxopiperidine, and pharmaceutical compositions thereof” (Nanjing Cavendish Bio-Engineering Technology Co., Ltd., priority 2009, dated 2015).
Entries after “also recorded” stand apart in the source; their conditions may differ.

Columns and labels:
Type in all cases: physicochemical
[1] = Solubility test according to Chinese Pharmacopoeia Edition 2005; details: for Dissolving status: within 30 minutes
Procedure: Test was performed according to the Examples of Chinese Pharmacopoeia Edition 2005. Method: a definite quantity of the Polymorph I of 3-(4-amino-1-oxo-1,3-dihydro-2H-isoindole-2-yl)-piperidine-2,6-dione (hemihydrate) measured accurately was added into a certain quantity of solvent slowly, while the mixture was shaken strongly for 30 seconds every 5 minutes and the dissolving status within 30 minutes was observed. Results were listed in Tab. 1.
(§1) Test was performed according to the Examples of Chinese Pharmacopoeia Edition 2005. Method: a definite quantity of the (acetonitrile) solvated Polymorph II of 3-(4-amino-1-oxo-1,3-dihydro-2H-isoindole-2-yl)-piperidine-2,6-dione measured accurately was added into a certain quantity of solvent slowly, while the mixture was shaken strongly for 30 seconds every 5 minutes and the dissolving status within 30 minutes was observed. Results were listed in Tab. 61.
as §1, with “(acetone)” for “(acetonitrile)”, “polymorph III” for “Polymorph II”, “slowly” for “slowly,”, “11.” for “61.”

[2] = Photostability test (strong illumination); details: for Appearance / Content / Related substance: 4500±500 Lx
Description: (§2) The conditions and methods of related substance test involved in this invention were in accordance with HPLC (Appendix VD of Chinese Pharmacopoeia Edition 2005).
(§3) Chromatographic conditions and system applicability: octadecylsilane bonded silica as the filler; 0.01 mol/L of potassium dihydrogen phosphate (adjusted to pH 3.5 by phosphoric acid)-methanol-acetonitrile (80:15:5) as the mobile phase; detection wavelength was 240 nm; the number of theoretical plates should be not less than 2000, calculated according to the peak of 3-(4-amino-1-oxo-1,3-dihydro-2H-isoindole-2-yl)-piperidine-2,6-dione. The resolution of the peak of 3-(4-amino-1-oxo-1,3-dihydro-2H-isoindole-2-yl)-piperidine-2,6-dione from the peaks of adjacent impurities should meet requirements.
The Polymorph I of 3-(4-amino-1-oxo-1,3-dihydro-2H-isoindole-2-yl)-piperidine-2,6-dione (hemihydrate) was distributed homogeneously in open petri dish with the thickness of the raw material not more than 5 mm, and the distance was adjusted to make illumination intensity at 4500±500 Lx. Sample was tested at the 5th and 10th day respectively and the results were contrasted with that of the Day 0. Results were listed in Tab. 2. After strong illumination for 10 days, the X-ray powder diffraction pattern was shown in FIG. 5; DSC diagram of the Polymorph I of 3-(4-amino-1-oxo-1,3-dihydro-2H-isoindole-2-yl)-piperidine-2,6-dione (hemihydrate) was in FIG. 6.
(§4) The Polymorph II of 3-(4-amino-1-oxo-1,3-dihydro-2H-isoindole-2-yl)-piperidine-2,6-dione was distributed homogeneously in open petri dish with the thickness of the raw material not more than 5 mm and the distance was adjusted to make illumination intensity at 4500±500 Lx. Sample was tested at the 5th and 10th day respectively and the results were contrasted with that of the Day 0. Results were listed in Tab. 7. After strong illumination for 10 days, the X-ray powder diffraction pattern was shown in FIG. 16; DSC diagram was in FIG. 17
as §4, with “III” for “II”, “12.” for “7.”, “27;” for “16;”, “28” for “17”

[3] = High temperature test (60° C.); details: for Appearance / Content / Related substance: 60° C.
Description: as §2, §3
The raw material of Polymorph I of 3-(4-amino-1-oxo-1,3-dihydro-2H-isoindole-2-yl)-piperidine-2,6-dione (hemihydrate) was put into a clean sealed glass bottle and then put in thermostatic drying chamber at 60° C. Sample was tested at the 5th and 10th day respectively and the results were contrasted with that of the Day 0. Results were listed in Tab. 3. After high temperature test of 60° C. for 10 days, the X-ray powder diffraction pattern was shown FIG. 7; DSC diagram was in FIG. 8.
(§5) The raw material of Polymorph II of 3-(4-amino-1-oxo-1,3-dihydro-2H-isoindole-2-yl)-piperidine-2,6-dione was put into a clean sealed glass bottle and then put in thermostatic drying chamber at 60° C. Sample was tested at the 5th and 10th day respectively and the results were contrasted with that of the Day 0. Results were listed in Tab. 8. After high temperature test of 60° C. for 10 days, the X-ray powder diffraction pattern was shown in FIG. 18; DSC diagram was in FIG. 19.
as §5, with “III” for “II”, “13.” for “8.”, “29;” for “18;”, “30.” for “19.”

[4] = Observation test of long-term sample storage (crystal transformation); details: long-term sample storage in high humidity; DSC scanning

Nc1cccc2c1CN(C1CCC(=O)NC1=O)C2=O (single isomer, unassigned) [Polymorph III, 3-(4-amino-1-oxo-1,3-dihydro-2H-isoindole-2-yl)-piperidine-2,6-dione]
Conclusion (solubility) ([1]; 0.1 mol/L HCl solution): slightly soluble | Dissolving status ([1]; 0.1 mol/L HCl solution): fully | Conclusion (solubility) ([1]; 0.1 mol/L NaOH solution): sparingly soluble | Dissolving status ([1]; 0.1 mol/L NaOH solution): fully | Conclusion (solubility) ([1]; DMF (N,N-dimethylformamide)): soluble | Dissolving status ([1]; DMF): fully | Conclusion (solubility) ([1]; DMSO (dimethylsulfoxide)): soluble | Dissolving status ([1]; DMSO): fully | Conclusion (solubility) ([1]; acetic acid): sparingly soluble | Dissolving status ([1]; acetic acid): fully | Conclusion (solubility) ([1]; acetone): slightly soluble | Dissolving status ([1]; acetone): fully | Conclusion (solubility) ([1]; acetonitrile): slightly soluble | Dissolving status ([1]; acetonitrile): fully | Conclusion (solubility) ([1]; ethanol): very slightly soluble and very | Dissolving status ([1]; ethanol): fully | Conclusion (solubility) ([1]; ethyl acetate): very slightly soluble and very | Dissolving status ([1]; ethyl acetate): fully | Conclusion (solubility) ([1]; methanol): slightly soluble | Dissolving status ([1]; methanol): fully | Conclusion (solubility) ([1]; water): very slightly soluble; also recorded: practically | Dissolving status ([1]; water): cannot fully | Appearance ([2]; 0 days): off-white powder | Content ([2]; 0 days): 99.86% | Related substance ([2]; 0 days): 0.07% | Appearance ([2]; 5 days): off-white powder | Content ([2]; 5 days): 99.85% | Related substance ([2]; 5 days): 0.07% | Appearance ([2]; 10 days): off-white powder | Content ([2]; 10 days): 99.85% | Related substance ([2]; 10 days): 0.07% | Variation of appearance and content (in words) ([2]; photostability (illumination) test, summary): few significant variation | Appearance ([3]; 0 days): off-white powder | Content ([3]; 0 days): 99.86% | Related substance ([3]; 0 days): 0.07% | Appearance ([3]; 5 days): off-white powder | Content ([3]; 5 days): 99.84% | Related substance ([3]; 5 days): 0.07% | Appearance ([3]; 10 days): off-white powder | Content ([3]; 10 days): 99.83% | Related substance ([3]; 10 days): 0.08% | Variation of appearance and content (in words) ([3]; high temperature (60° C.) test, summary): few significant variation | Crystal transformation [4]: a small amount of Polymorph III had transformed to Polymorph I
